Where two headings read alike, the source gives them in different places. Blank lines part the entries; values can stand above or below the molecule they belong to.
Assays:
[1] = Plasma potassium concentration before and after adrenaline and Seloken; format: in vivo, human
Description: Plasma K+ concentrations where followed before and after administration of both adrenaline and Seloken (beta blocker).

[2] = Hemodynamic monitoring during adrenaline infusion without or with Seloken; format: in vivo, human
Description: FIG. 11: The healthy subjects described in FIG. 10 were monitored haemodynamically at the same time points as described in FIG. 10. (a) heart rate (HR), (b) cardiac output (CO), (c) stroke volume (SV), (d) invasive blood pressure: mean arterial pressure, MAP) and (d) total peripheral resistance (TPR). […] The conc x treatment is an analysis of the total response/the total pattern, to check whether there is an interaction between concentration and treatment. […] ANOVA: Analysis of variance.
The hemodynamic changes comprising heart rate (HR), cardiac output (CO), stroke volume (SV), mean arterial pressure (MAP) and total peripheral resistance (TPR) were monitored during the protocol described in example 7 and FIG. 10.

hemostatic system [3] = test: TEG MA with combination of adrenergic receptor agonist and antagonists; format: in vivo, human
Experimental: FIG. 10: Seven healthy volunteers received 3 doses of adrenaline infusion lasting for 5 minutes each in the following step-wise increasing doses 3.5, 5.0 and 6.0 μg/kg/h. After resting 1 hour, the subjects received 0.15 μg/kg Seloken i.v. and rested again 30 minutes before repeating the step-wise adrenaline infusions. Blood samples were obtained from an arterial catheter at baseline (t=0.0), after each of the first adrenaline doses (t=5.0, t=10.1, t=15.0), at baseline after Seloken administration and rest (t=0.1) and after each of the subsequent adrenaline infusions (t=5.1, t=10.1, t=15.1). The blood was analyzed with TEG as described in FIG. 3 and Example 1. TEG MA values are presented as mean with 95% Cl and analyzed with a 2-way repeated measurements (RM) ANOVA with post hoc Bonferroni adjusted paired t-test of t=0.0 vs. t=5.0, t=10.1, t=15.0, respectively and t=0.1 vs. t=5.1, t=10.1, t=15.1, ***p<0.001.
Healthy volunteers rested 1 hour before receiving step-wise i.v. administration of adrenaline in the doses 3.5, 5.0 and 6.0 μg/kg/h, five minutes infusion at each dose, as described in FIG. 4. Hereafter the subjects rested for 1 hour and received an antagonist by i.v. infusion propanolol (primarily a β-2 antagonist, 0.15 mg/kg for 10 minutes), n=8, Urapidil (α-1 antagonist, 50 mg) or Seloken (β-1 antagonist 0.15 mg/kg for 10 minutes), n=7. […]

hemostatic system [4] = system: hemostatic system
Experimental: FIG. 7: TEG parameters (a) R, (b) Angle and (c) MA measured as described in FIG. 3 and example 1 on blood samples collected from patients infused with adrenaline prior to prostatectomy. Ten patients were anesthetized by propofol and haldid and infused with adrenaline i.v. in the doses 1, 2 and 3 μg/kg/h each for 5 minutes prior to skin incision. Hereafter the patients were prostatectomised according to local protocol. Blood samples were collected from an arterial catheter before adrenaline administration and immediately after each infusion dose (1, 2 and 3 μg/kg/h) and again 1 hour after discontinuation of adrenaline infusion. Statistics used: One-way ANOVA, Friedman Test, and Dunn's Multiple Comparison post hoc test of “before” compared to each of the following points 1, 2, 3 μg/kg/h and 1 hour after termination of adrenaline infusion, *p<0.05, **p<0.01,***p<0.001, ns: non significant.
Patients undergoing prostatectomy were anaesthetized by propofol and haldid. Prior to skin incision the patients received a step-wise i.v. infusion of adrenaline in the doses 1, 2 and 3 μg/kg/h each for 5 minutes. TEG analyses were performed as described in example 1, exactly 30 minutes after collection of arterial blood. Blood samples were obtained before and after each dose and 1 hour after discontinuation of adrenaline infusion.

[5] = i.v. step-wise 1, 2, 3 μg/kg/h or 3 μg/kg/h for 15 minutes before skin incision, vs 40 control patients
Experimental: The 2 intervention groups were compared to 40 controls also undergoing prostatectomy, whereof 20 underwent surgery prior to the interventions and the last 20 after the intervention. All values including median for each group is depicted. Comparisons between control group and each of the intervention groups was done separately by Mann Whitney test.
Blood loss of the 10 patients described in example 2 and 10 additional prostatectomy patients receiving a 15 minutes continuous adrenaline infusion of 3 μg/kg/h before skin incision were compared to 40 control patients, not receiving adrenaline, whereof 20 were operated before the interventions and the last 20 subsequently after the intervention (FIG. 8).

hemostatic system [6] = test: Thrombelastography (TEG) of arterial whole blood after i.v. infusion in healthy volunteers; format: in vivo, human
Experimental: FIG. 3: Representative TEG profile of healthy volunteers before and after administration of adrenaline. Whole blood was drawn in 1/10 citrate from an arterial catheter. The citrated whole blood sample rested exactly 30 minutes at room temperature before TEG analysis on the Thrombelastograph Hemostasis Analyser, series 5000 (Haemoscope Corp., Skokie, Ill.): One ml of citrated whole blood was transferred to a kaolin vial (Haemoscope Corp.) and gently mixed by inversion 5 times. From the kaolin vial 340 μl was added to a plain TEG cup preloaded with 20 μl of 0.2 M CaCl2 and the analysis started immediately.
FIG. 4: TEG parameters (a) R, (b) Angle and (c) MA of 30 healthy volunteers after totally 15 minutes of i.v. administration of adrenaline. The subjects were catheterized and rested 60 minutes before administration of adrenaline was commenced. Adrenaline was step-wise infused intravenously for 5 minutes at each of the doses 3.5 μg/kg/h, 5.0 μg/kg/h and 6.0 μg/kg/h. Blood samples were collected from an arterial catheter at baseline (t=0) and immediately after each dose (t=5, t=10 and t=15).
FIG. 5: TEG MA measured before and after i.v. infusion of noradrenaline at 4.8 μg/kg/h for 15 minutes in 10 healthy volunteers, mean with 95% Cl. MA before and after noradrenaline was compared by a paired t-test with a p-value<0.05 considered statistically significant.
FIG. 6: TEG MA measured before (t=0) and after i.v. infusion of adrenaline at 4.8 μg/kg/h for 15 minutes (t=15) and 30 minutes after discontinuation of adrenaline administration (t=45). Data presented as mean with 95% Cl.
A whole blood sample for TEG analysis was drawn into a tube containing citrate (9 volumes of blood into 1 volume of 0.129 M citrate; […] system, BD Biosciences, Plymouth, UK) and rested for exactly 30 minutes before analysis: Coagulation was initiated by kaolin and re-calcified according to the instructions of the manufacturer: Citrated whole blood was added to a kaolin vial and mixed by gently inversion 5 times before transfer to the TEG cup containing calcium chloride (20 μl of 0.2 M CaCl2), which was preloaded into the TEG® cup as published previously [Johansson et al. 2008]. The hemostatic process was recorded by use of a TEG® coagulation analyzer (5000 series, Haemoscope Corporation). Adrenaline was mixed with 0.9% NaCl and infused intravenously.
FIG. 3 illustrates TEG profiles from a representative volunteer before and after receiving intravenous infusion of adrenaline 3 μg/kg/h for 15 minutes.

[7] = prostatectomy patients, step-wise i.v. 1, 2 and 3 μg/kg/h each for 5 minutes
[8] = healthy volunteers, i.v. adrenaline 3 μg/kg/h for 15 minutes (FIG. 3, FIG. 4)
[9] = in response to adrenaline infusions

Experimental for fibrinolysis: Arterial blood was collected in citrate before and after the last adrenaline dose (t=15) and again 30 minutes after end of infusion (t=45). The blood was analyzed with TEG (described in FIG. 3) after addition of tissue plasminogen activator (tPA) in a final concentration of 2.4 nM. (a) A representative example of TEG tracings with tPA induced fibrinolysis before and immediately after infusions of adrenaline. (b) Comparisons of the lysis AUC values t=0 vs. t=15 and t=0 vs. t=45, respectively by 1-way ANOVA, Friedman test and post hoc Dunn's Multiple Comparison Test, **p<0.01, ns: not significant.
When challenging the clot in vitro by induction of fibrinolyis, the Lysis AUC obtained by TEG (see FIG. 2) is a measure of the clot's resistance against fibrinolysis. Healthy subject received step-wise adrenaline infusion as described in FIG. 4, and blood was collected before (t=0), immediately after the infusion (t=15) and 30 minutes after discontinuation (t=45). Citrated whole blood was analysed precisely 30 minutes after blood collection: The fibrinolysis activator tPA (American Diagnostica) was added in a final concentration of 2.4 nM and TEG was performed as described in Example 1 and FIG. 3.

- drop in plasma potassium concentration after adrenaline ([1]; Seloken administered prior to adrenaline): less
- adrenaline-induced increase in SV ([2]; after Seloken administration): not significantly lowered
- adrenaline-induced decrease in TPR ([2]; after Seloken treatment): significantly lower decrease
- adrenaline-induced increase in CO ([2]; when Seloken was administered, all adrenaline concentrations): significantly lower
- adrenaline-induced increase in HR ([2]; when Seloken was infused before adrenaline): practically abrogated/normalized
SMILES: COCCc1ccc(OCC(O)CNC(C)C)cc1 (stereo not shown) [Seloken, Metoprolol]
- effect of antagonist on the MA increase after adrenaline (hemostatic system [3]; antagonist i.v. 30 minutes before repeated step-wise adrenaline 3.5, 5.0, 6.0 μg/kg/h, Seloken 0.15 mg/kg for 10 minutes): not affected

- plasma potassium concentrations following administration ([1]; three healthy volunteers): fell
- total peripheral resistance (TPR) ([2]; all adrenaline doses, with and without Seloken): significant decrease
- mean arterial pressure (MAP) ([2]; any of the adrenaline doses used): no effects
- cardiac output (CO) [2, 9]: increase in CO
- stroke volume (SV) [2, 9]: increase in SV
SMILES: CNC[C@H](O)c1ccc(O)c(O)c1 [adrenaline, (R)-4-(1-hydroxy-2-(methylamino)ethyl)benzene-1,2-diol]
- pro-hemostatic effect versus dose (hemostatic system [4]; 1, 2 and 3 microgram/kg/hour, compared to baseline (FIG. 7)): dose dependent increase
- pro-hemostatic effect on clot strength (MA) after discontinuation (hemostatic system [4]; 60 min after discontinuation of infusion, prostatectomy patients): abated
- time until MA returns to baseline after discontinuation of infusion (hemostatic system [4]; prostatectomy patients (FIG. 7c)): ≤ 60 min
- TEG Angle (propagation and thrombin generation) (hemostatic system [4]; [7]): increased
- TEG MA (mechanical strength of the clot) (hemostatic system [4]; [7]): increased
- TEG R (initiation of the coagulation process) (hemostatic system [4]; [7]): decreased
- perioperative blood loss [5]: reduced perioperative blood loss significantly
- time until MA returns to baseline after discontinuation of infusion (hemostatic system [6]; healthy volunteers, 4.8 μg/kg/h for 15 minutes (FIG. 6)): ≤ 30 min
- MA response (hemostatic system [6]; healthy volunteers, adrenaline infusion 3.5, 5.0, 6.0 μg/kg/h (FIG. 4c)): dose-dependent increase
- TEG Angle (thrombin generation) (hemostatic system [6]; [8]): increased
- TEG MA (mechanical clot strength) (hemostatic system [6]; [8]): increased
- TEG R (initiation of the coagulation process) (hemostatic system [6]; [8]): shorter
- heart rate (HR) ([2]; adrenaline alone, 3.5, 5.0, 6.0 μg/kg/h): increased HR significantly
- effect on Lysis AUC after discontinuation (fibrinolysis; 30 minutes after discontinuation of infusion (t=45)): abrogated
- increase of Lysis AUC (resistance against fibrinolysis) (fibrinolysis; healthy subjects, step-wise 3.5, 5.0, 6.0 μg/kg/h, t=15 vs t=0, tPA 2.4 nM): 154%
- TEG MA after adrenaline administration (hemostatic system [3]; healthy volunteers, step-wise 3.5, 5.0 and 6.0 μg/kg/h (FIG. 10)): increases

SMILES: NC[C@H](O)c1ccc(O)c(O)c1 [noradrenaline, 4-(2-Amino-1-hydroxyethyl)benzene-1,2-diol]
- pro-hemostatic effect (TEG MA) (hemostatic system [6]; 10 healthy subjects, i.v. 4.8 μg/kg/h for 15 minutes (FIG. 5)): pro-hemostatic effect

From patent publication US9381166B2 (Rigshospitalet, priority 2007, dated 2016)
